# Patent US7744867B2, “PTPase inhibitors and method of using same” (The Cleveland Clinic Foundation, priority 2001, dated 2010)
# Columns and labels:
# [1] = cited from earlier work
# [2] = tested on: Jak2 and Stat5 tyrosine phosphorylation; test: IL-3-induced Jak2/Stat5 tyrosine phosphorylation in Baf3 cells; format: cell-based, murine
# Protocol: For induction of cellular protein phosphorylation by sodium stibogluconate or pervanadate, Baf3 cells were incubated in 0.1% FCS RPMI 1640 medium at 37° C. for 16 hours. The cells were then washed twice in RPMI 1640 medium and incubated with sodium stibogluconate or pervanandate (0.1 mM) for various times prior to termination by lysing cells in cold lysis buffer (50 mM Tris, pH 7.4; 150 mM NaCl; 0.2 mM Na3VO4; 20 mm NaF; 1% NP40; 2 mM PMSF; 20 μg/ml of aprotinin and 1 mM of sodium molybdic acid). To determine the effect of sodium stibogluconate or potassium antimonyl tartrate on IL-3-induced Jak/Stat phosphorylation, Baf3 cells were deprived of the growth factor for 16 hours in 0.1% FCS RPMI 1640 medium and then incubated with or without sodium stibogluconate or potassium antimonyl tartrate for 10 minutes. IL-3 was next added to the cell suspension and incubated for various times. The cells were then harvested and lysed in cold lysis buffer at 4° C. for 45 minutes. Total cell lysates (TCL) were separated in SDS-PAGE gels, blotted onto nitrocellulose membrane (Schleicher & Schuell), probed with specific antibodies and detected using an enhanced chemiluminescence kit (ECL, Amersham).
# A functional role of SHP-1 in dephosphorylating the Jak family kinases during cytokine signaling has been documented. To determine whether sodium stibogluconate inhibits SHP-1 in vivo, the effect of the drug on IL-3-induced Jak2 tyrosine phosphorylation in Baf3 cells was examined. Baf3 cells deprived of IL-3 were incubated with or without the drug for 10 minutes and then stimulated with IL-3 for various times. IL-3 induced tyrosine phosphorylation of Jak2 and Stat5 in Baf3 cells in the presence or absence of the drug. However, the phosphotyrosine levels of Jak2 and Stat5 in the presence of the drug were about twice of those in cells without drug treatment as determined by densitometry analysis.
# [3] = target: T1, intracellular MKP1 in WM9 cells (Homo sapiens, UniProt P28562); test: PTPase activity of anti-MKP1 immunocomplexes from WM9 cells; format: cell-based; details: treated 5 minutes
# T1 construct: endogenous in cells; host or cells: WM9 human melanoma cells
# Protocol: (§1) FIG. 6C. Sodium stibogluconate inactivates intracellular PRL-2 in WM9 human melanoma cells. A. Relative PTPase activities of anti-Flag immunocomplexes from WM9 cells transfected with the control vector (V) or Flag-PRL-2 expression construct and then treated with different amounts of sodium stibogluconate for 5 minutes B. Relative amounts of Flag-PRL-2 in the immunocomplexes as determined by SDS-PAGE/Western blotting. C. Relative PTPase activities of anti-MKP1 immunocomplexes from WM9 cells treated with different amounts of sodium stibogluconate for 5 minutes. Relative amounts of MKP1 in the immunocomplexes as determined by SDS-PAGE/Western blotting.
# (§2) Flag-PRL-2 protein was detected in anti-Flag immunocomplexes from WM9 cells tranfected with an expression construct of Flag-PRL-2 but not in those from vector transfectants expected.
# [4] = target: T2, intracellular Flag-PRL-2 in WM9 cells (Homo sapiens, UniProt Q12974); test: PTPase activity of anti-Flag immunocomplexes from WM9 transfectants; format: cell-based; details: treated 5 minutes
# T2 construct: expressed in transfected cells; host or cells: WM9 human melanoma cells
# Protocol: as §1, §2
# [5] = tested on: C42 cells (Prostate cancer); test: Growth inhibition of human tumor cell lines; format: cell-based; details: SS 12.5 μg/ml, IFNα 1,000 u/ml, alone or combined
# H9 cells (T-lymphoma) = test: Growth inhibition of human tumor cell lines; format: cell-based; details: SS 12.5 μg/ml, IFNα 1,000 u/ml, alone or combined
# [6] = tested on: WM9 human melanoma xenografts; test: Xenografts of human melanoma in nude mice, tumor volume; format: in vivo; details: day 25, IFNα 500,000 U s.c. daily, sodium stibogluconate 12 mg Sb s.c. daily
# Excerpt: FIG. 11 illustrates that sodium stibogluconate appears to synergize with IFNα against WM9 human melanoma tumors in nude mice. IFNα or both on the growth of xenografts of human melanoma cell line WM9 and human prostate carcinoma cell line DU-145 in athymic nude mice. Nude mice of 4 weeks old were inoculated subcutaneously (s.c.) with WM9 human melanoma cells (3×10^6 cells/site) (A) or DU-145 human prostate cancer cells (2×10^6 cells/site) (B) on day 0. Starting on day 2, the mice were subjected to no treatment (Control) or treatment with IFNα (500,000 U, s.c., daily), sodium stibogluconate (12 mg, s.c., daily) or both (Combo). Tumor volume in the nude mice (4 mice/group, 2 tumors/mouse) was measured on the days as indicated. Tumor volume was calculated by the equation: (length×width^2)/2 to compare tumor growth rates. All mice survived by the end of the experiment. […]
# For each of the cell lines, each of 16 mice received subcutaneous injection at the chest area of 3×10^6 cells/site (WM9) or 2×10^6 cells/site (DU145), two sites/mouse, on day 0. […] Tumor size was measured with a caliper to determine the two perpendicular diameters of each tumor. Tumor volume was calculated using the method of the NCI (length×width^2 in millimeters/2=volume in cubic millimeters). […]
# T1 sequence (P28562 whole entry): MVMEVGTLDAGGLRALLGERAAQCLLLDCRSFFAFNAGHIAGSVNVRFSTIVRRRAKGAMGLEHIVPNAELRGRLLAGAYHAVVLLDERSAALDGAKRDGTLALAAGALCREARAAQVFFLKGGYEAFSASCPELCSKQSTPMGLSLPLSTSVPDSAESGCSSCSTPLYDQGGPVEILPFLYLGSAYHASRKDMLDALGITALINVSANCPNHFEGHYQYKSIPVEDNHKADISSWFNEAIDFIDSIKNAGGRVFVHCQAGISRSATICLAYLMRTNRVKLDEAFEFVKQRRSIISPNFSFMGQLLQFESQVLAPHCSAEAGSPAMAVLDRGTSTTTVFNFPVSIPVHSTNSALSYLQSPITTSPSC
# T2 sequence (Q12974 whole entry): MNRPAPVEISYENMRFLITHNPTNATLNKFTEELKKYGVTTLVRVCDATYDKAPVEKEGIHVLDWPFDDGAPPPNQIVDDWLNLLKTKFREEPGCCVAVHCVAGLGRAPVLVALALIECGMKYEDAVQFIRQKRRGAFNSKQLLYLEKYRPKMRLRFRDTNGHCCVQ
Molecule,"blood levels, of peak value ([1]; in 16 hours)",excreted (renal clearance) ([1]; in the first 6 hours),serum levels ([1]; standard dosage 10-20 mg/kg/day) [ng/mL],"phosphotyrosine levels of Jak2 and Stat5 relative to cells without drug treatment ([2]; IL-3 stimulated, drug 10 minutes before, densitometry)","Jak2/Stat5 tyrosine phosphorylation by the drug alone ([2]; without IL-3, 37° C. for 16 hours)",effect on MKP1 PTPase activity in WM9 cells [3],PTPase activity of Flag-PRL-2 immunocomplexes from treated WM9 transfectants [4],% of growth inhibition by day 6 (±s.d.) [5],% of growth inhibition by day 6 (±s.d.) (H9 cells (T-lymphoma)),"average tumor volume, of the control group [6]"
O.O.O.O.O.O.O.O.O.O=C([O-])[C@@H]1[O][Sb]2([O-])([O][Sb]34([OH])[O][C@H]([C@H](O)CO)[C@H]([O]3)[C@H](C(=O)[O-])[O]4)[O][C@H]([C@H](O)CO)[C@@H]1[O]2.[Na+].[Na+].[Na+] [sodium stibogluconate],around 1%,more than 80%,≥ 10000,about twice,failed to induce,no marked effects,only low levels of PTPase activity,,,
IFNα,,,,,,,,+19 (30) %,86 (3) %,approximately 40%
